Results from patent publication US7799809B2, “Carboxamide compounds and their use as calpain inhibitors” (Abbott GmbH & Co. KG, priority 2006, dated 2010).

Legend:
Type in all cases: biochemical
[1] = biological target: T1, cathepsin B (Homo sapiens, UniProt P07858); assay: Cathepsin B enzyme inhibition in vitro (kinetic fluorescence assay); conditions: cathepsin B isolated from human liver vs calpain I
T1 construct: cathepsin B—isolated from human liver (Calbiochem #219362); purchased Calbiochem 219362; host or cells: human liver (tissue-derived)
How it was run: (§1)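 Cathepsin B (0.25 nM, human liver) with 100 μM Z-Phe-Arg-AMC; L (1 nM, human liver) with 2 μM Z-Phe-Arg-AMC; S (0.5 nM, recombinant) with 20 μM Z-Val-Val-Arg-AMC. pH 6.0 MES buffer, 2.5 mM L-cysteine, room temperature. Kinetic fluorescence (ex 390/em 460 nm); apparent Ki from IC50 by Cheng-Prusoff.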

[2] = biological target: T2, cathepsin K (Homo sapiens, UniProt P43235); assay: Cathepsin K enzyme inhibition in vitro (kinetic fluorescence assay); conditions: cathepsin K activated from recombinant human procathepsin K vs calpain I
T2 construct: purchased Calbiochem 342001; host or cells: E. coli
T2 sequence (P43235 115-329): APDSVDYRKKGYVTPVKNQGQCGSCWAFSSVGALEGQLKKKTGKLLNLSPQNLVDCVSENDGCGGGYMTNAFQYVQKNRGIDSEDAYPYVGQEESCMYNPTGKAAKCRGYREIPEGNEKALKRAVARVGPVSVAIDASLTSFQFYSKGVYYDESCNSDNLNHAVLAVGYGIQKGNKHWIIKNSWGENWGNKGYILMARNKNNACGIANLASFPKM

[3] = biological target: T3, cathepsin L (Homo sapiens, UniProt P07711); assay: Cathepsin L enzyme inhibition in vitro (kinetic fluorescence assay); conditions: cathepsin L isolated from human liver vs calpain I
T3 construct: cathepsin L—isolated from human liver (Calbiochem #219402); purchased Calbiochem 219402; host or cells: human liver (tissue-derived)
T3 sequence (P07711 114-333): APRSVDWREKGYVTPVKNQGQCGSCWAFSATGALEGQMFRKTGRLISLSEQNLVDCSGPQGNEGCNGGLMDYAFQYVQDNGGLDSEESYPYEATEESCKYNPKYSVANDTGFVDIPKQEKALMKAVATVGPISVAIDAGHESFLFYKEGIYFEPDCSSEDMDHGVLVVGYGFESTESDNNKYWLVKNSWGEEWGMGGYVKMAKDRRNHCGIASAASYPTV
How it was run: as §1

[4] = biological target: T4, cathepsin S (Homo sapiens, UniProt P25774); assay: Cathepsin S enzyme inhibition in vitro (kinetic fluorescence assay); conditions: recombinant human cathepsin S vs calpain I
T4 construct: purchased Calbiochem 219343; host or cells: E. coli
T4 sequence (P25774 115-331): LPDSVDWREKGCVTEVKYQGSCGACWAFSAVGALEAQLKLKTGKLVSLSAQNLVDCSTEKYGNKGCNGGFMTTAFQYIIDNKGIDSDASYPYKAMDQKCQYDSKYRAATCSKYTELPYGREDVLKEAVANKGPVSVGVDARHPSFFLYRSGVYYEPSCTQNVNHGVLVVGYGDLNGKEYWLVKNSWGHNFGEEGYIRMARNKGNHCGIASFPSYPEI
How it was run: as §1

## COc1cc(F)ccc1-c1ccn(-c2ncccc2C(=O)NC(Cc2ccccc2)C(=O)C(N)=O)n1 (centres unmarked) [Example 125, N-[3-Amino-2,3-dioxo-1-(phenylmethyl)propyl]-2-{3-[4-fluoro-2-(methyloxy)phenyl]-1H-pyrazol-1-yl}pyridine-3-carboxamide]
[1]
  Sel cat. B: Ki(cathepsin B)/Ki(calpain) ratio: ++ (++ means a Ki(cathepsin B)/Ki(calpain) ratio of ≧30)
[2]
  Sel cat. K: Ki(cathepsin K)/Ki(calpain) ratio: ++ (++ means a Ki(cathepsin K)/Ki(calpain) ratio of ≧30)
[3]
  Sel cat. L: Ki(cathepsin L)/Ki(calpain) ratio: ++ (++ means a Ki(cathepsin L)/Ki(calpain) ratio of ≧50)
[4]
  Sel cat. S: Ki(cathepsin S)/Ki(calpain) ratio: ++ (++ means a Ki(cathepsin S)/Ki(calpain) ratio of ≧100)

## NC(=O)C(=O)C(Cc1ccccc1)NC(=O)c1cccnc1-n1ccc(-c2cccc3cccnc23)n1 (centres unmarked) [Example 160, N-[3-amino-2,3-dioxo-1-(phenylmethyl)propyl]-2-(3-quinolin-8-yl-1H-pyrazol-1-yl)pyridine-3-carboxamide]
[1]
  Sel cat. B: Ki(cathepsin B)/Ki(calpain) ratio: ++ (++ means a Ki(cathepsin B)/Ki(calpain) ratio of ≧30)
[2]
  Sel cat. K: Ki(cathepsin K)/Ki(calpain) ratio: ++ (++ means a Ki(cathepsin K)/Ki(calpain) ratio of ≧30)
[3]
  Sel cat. L: Ki(cathepsin L)/Ki(calpain) ratio: ++ (++ means a Ki(cathepsin L)/Ki(calpain) ratio of ≧50)
[4]
  Sel cat. S: Ki(cathepsin S)/Ki(calpain) ratio: ++ (++ means a Ki(cathepsin S)/Ki(calpain) ratio of ≧100)

## NC(=O)C(=O)C(Cc1ccccc1)NC(=O)c1cccnc1-n1ccc(-c2c(F)ccc(Cl)c2Cl)n1 (centres unmarked) [Example 120, N-[3-Amino-2,3-dioxo-1-(phenylmethyl)propyl]-2-[3-(2,3-dichloro-6-fluorophenyl)-1H-pyrazol-1-yl]pyridine-3-carboxamide]
[1]
  Sel cat. B: Ki(cathepsin B)/Ki(calpain) ratio: ++ (++ means a Ki(cathepsin B)/Ki(calpain) ratio of ≧30)
[2]
  Sel cat. K: Ki(cathepsin K)/Ki(calpain) ratio: ++ (++ means a Ki(cathepsin K)/Ki(calpain) ratio of ≧30)
[3]
  Sel cat. L: Ki(cathepsin L)/Ki(calpain) ratio: + (+ means 30≦Ki(cathepsin L)/Ki(calpain)<50)
[4]
  Sel cat. S: Ki(cathepsin S)/Ki(calpain) ratio: ++ (++ means a Ki(cathepsin S)/Ki(calpain) ratio of ≧100)

## NC(=O)C(=O)C(Cc1ccccc1)NC(=O)c1cccnc1-n1ccc(-c2ccccn2)n1 (centres unmarked) [Example 35, N-(3-Amino-1-benzyl-2,3-dioxopropyl)-2-(3-pyridin-2-yl-1H-pyrazol-1-yl)nicotinamide]
[1]
  Sel cat. B: Ki(cathepsin B)/Ki(calpain) ratio: + (+ means 10≦Ki(cathepsin B)/Ki(calpain)<30)
[2]
  Sel cat. K: Ki(cathepsin K)/Ki(calpain) ratio: + (+ means 10≦Ki(cathepsin K)/Ki(calpain)<30)
[3]
  Sel cat. L: Ki(cathepsin L)/Ki(calpain) ratio: ++ (++ means a Ki(cathepsin L)/Ki(calpain) ratio of ≧50)
[4]
  Sel cat. S: Ki(cathepsin S)/Ki(calpain) ratio: ++ (++ means a Ki(cathepsin S)/Ki(calpain) ratio of ≧100)

## NC(=O)C(=O)C(Cc1ccccc1)NC(=O)c1cccnc1-n1ccc(-c2cccc(OC(F)(F)F)c2)n1 (centres unmarked) [Example 168, N-[3-Amino-2,3-dioxo-1-(phenylmethyl)propyl]-2-(3-{3-[(trifluoromethyl)oxy]phenyl}-1H-pyrazol-1-yl)pyridine-3-carboxamide]
[1]
  Sel cat. B: Ki(cathepsin B)/Ki(calpain) ratio: + (+ means 10≦Ki(cathepsin B)/Ki(calpain)<30)
[2]
  Sel cat. K: Ki(cathepsin K)/Ki(calpain) ratio: + (+ means 10≦Ki(cathepsin K)/Ki(calpain)<30)
[3]
  Sel cat. L: Ki(cathepsin L)/Ki(calpain) ratio: ++ (++ means a Ki(cathepsin L)/Ki(calpain) ratio of ≧50)
[4]
  Sel cat. S: Ki(cathepsin S)/Ki(calpain) ratio: ++ (++ means a Ki(cathepsin S)/Ki(calpain) ratio of ≧100)

## COc1ccc(F)cc1-c1ccn(-c2ncccc2C(=O)NC(Cc2ccccc2)C(=O)C(N)=O)n1 (centres unmarked) [Example 130, N-[3-Amino-2,3-dioxo-1-(phenylmethyl)propyl]-2-{3-[5-fluoro-2-(methyloxy)phenyl]-1H-pyrazol-1-yl}pyridine-3-carboxamide]
[1]
  Sel cat. B: Ki(cathepsin B)/Ki(calpain) ratio: ++ (++ means a Ki(cathepsin B)/Ki(calpain) ratio of ≧30)
[2]
  Sel cat. K: Ki(cathepsin K)/Ki(calpain) ratio: ++ (++ means a Ki(cathepsin K)/Ki(calpain) ratio of ≧30)
[3]
  Sel cat. L: Ki(cathepsin L)/Ki(calpain) ratio: ++ (++ means a Ki(cathepsin L)/Ki(calpain) ratio of ≧50)
[4]
  Sel cat. S: Ki(cathepsin S)/Ki(calpain) ratio: ++ (++ means a Ki(cathepsin S)/Ki(calpain) ratio of ≧100)

## NC(=O)C(=O)C(Cc1ccccc1)NC(=O)c1cccnc1-n1ccc(-c2cc(F)cc(F)c2)n1 (centres unmarked) [Example 91, N-[3-Amino-2,3-dioxo-1-(phenylmethyl)propyl]-2-[3-(3,5-difluorophenyl)-1H-pyrazol-1-yl]pyridine-3-carboxamide]
[1]
  Sel cat. B: Ki(cathepsin B)/Ki(calpain) ratio: ++ (++ means a Ki(cathepsin B)/Ki(calpain) ratio of ≧30)
[2]
  Sel cat. K: Ki(cathepsin K)/Ki(calpain) ratio: + (+ means 10≦Ki(cathepsin K)/Ki(calpain)<30)
[3]
  Sel cat. L: Ki(cathepsin L)/Ki(calpain) ratio: ++ (++ means a Ki(cathepsin L)/Ki(calpain) ratio of ≧50)
[4]
  Sel cat. S: Ki(cathepsin S)/Ki(calpain) ratio: ++ (++ means a Ki(cathepsin S)/Ki(calpain) ratio of ≧100)

## N-[3-Amino-2,3-dioxo-1-(phenylmethyl)propyl]-2-[3-(3,5-dichlorophenyl)-1H-pyrazol-1-yl]pyridine-3-carboxamide [Example 89]
[1]
  Sel cat. B: Ki(cathepsin B)/Ki(calpain) ratio: + (+ means 10≦Ki(cathepsin B)/Ki(calpain)<30)
[2]
  Sel cat. K: Ki(cathepsin K)/Ki(calpain) ratio: + (+ means 10≦Ki(cathepsin K)/Ki(calpain)<30)
[3]
  Sel cat. L: Ki(cathepsin L)/Ki(calpain) ratio: ++ (++ means a Ki(cathepsin L)/Ki(calpain) ratio of ≧50)
[4]
  Sel cat. S: Ki(cathepsin S)/Ki(calpain) ratio: ++ (++ means a Ki(cathepsin S)/Ki(calpain) ratio of ≧100)

## NC(=O)C(=O)C(Cc1ccccc1)NC(=O)c1cccnc1-n1cc2c(n1)-c1cccc(Cl)c1OC2 (centres unmarked) [Example 175, N-[3-Amino-2,3-dioxo-1-(phenylmethyl)propyl]-2-(6-chlorochromeno[4,3-c]pyrazol-2(4H)-yl)pyridine-3-carboxamide]
[1]
  Sel cat. B: Ki(cathepsin B)/Ki(calpain) ratio: ++ (++ means a Ki(cathepsin B)/Ki(calpain) ratio of ≧30)
[2]
  Sel cat. K: Ki(cathepsin K)/Ki(calpain) ratio: ++ (++ means a Ki(cathepsin K)/Ki(calpain) ratio of ≧30)
[3]
  Sel cat. L: Ki(cathepsin L)/Ki(calpain) ratio: ++ (++ means a Ki(cathepsin L)/Ki(calpain) ratio of ≧50)
[4]
  Sel cat. S: Ki(cathepsin S)/Ki(calpain) ratio: ++ (++ means a Ki(cathepsin S)/Ki(calpain) ratio of ≧100)

## NC(=O)C(=O)C(Cc1ccccc1)NC(=O)c1cccnc1-n1cc(Cl)c(-c2ccc(F)cc2)n1 (centres unmarked) [Example 184, N-[3-Amino-2,3-dioxo-1-(phenylmethyl)propyl]-2-[4-chloro-3-(4-fluorophenyl)-1H-pyrazol-1-yl]pyridine-3-carboxamide]
[1]
  Sel cat. B: Ki(cathepsin B)/Ki(calpain) ratio: + (+ means 10≦Ki(cathepsin B)/Ki(calpain)<30)
[2]
  Sel cat. K: Ki(cathepsin K)/Ki(calpain) ratio: + (+ means 10≦Ki(cathepsin K)/Ki(calpain)<30)
[3]
  Sel cat. L: Ki(cathepsin L)/Ki(calpain) ratio: ++ (++ means a Ki(cathepsin L)/Ki(calpain) ratio of ≧50)
[4]
  Sel cat. S: Ki(cathepsin S)/Ki(calpain) ratio: ++ (++ means a Ki(cathepsin S)/Ki(calpain) ratio of ≧100)

## NC(=O)C(=O)C(Cc1ccccc1)NC(=O)c1cccnc1-n1ccc(-c2ccccc2OC(F)(F)F)n1 (centres unmarked) [Example 124, N-[3-Amino-2,3-dioxo-1-(phenylmethyl)propyl]-2-(3-{2-[(trifluoromethyl)oxy]phenyl}-1H-pyrazol-1-yl)pyridine-3-carboxamide]
[1]
  Sel cat. B: Ki(cathepsin B)/Ki(calpain) ratio: ++ (++ means a Ki(cathepsin B)/Ki(calpain) ratio of ≧30)
[2]
  Sel cat. K: Ki(cathepsin K)/Ki(calpain) ratio: ++ (++ means a Ki(cathepsin K)/Ki(calpain) ratio of ≧30)
[3]
  Sel cat. L: Ki(cathepsin L)/Ki(calpain) ratio: ++ (++ means a Ki(cathepsin L)/Ki(calpain) ratio of ≧50)
[4]
  Sel cat. S: Ki(cathepsin S)/Ki(calpain) ratio: ++ (++ means a Ki(cathepsin S)/Ki(calpain) ratio of ≧100)
